Data from patent US4739067A, “4-(1,2,5,6-tetrahydro-1-alkyl-3-pyridinyl)-2-thiazolamines and 4-(hexahydro-1-alkyl-3-pyridinyl)-2-thiazolamines” (priority 1986, dated 1988).

The molecules below were run against T1, Haloperidol Receptor (Bos taurus, UniProt P20288) (assay: Haloperidol Receptor Binding (dopaminergic agents)). Details: at 10^-6 M; read-out: % Inhibition (Haloperidol Receptor Binding).
T1 construct: from tissue
Excerpt: The method for determining the effectiveness of the compounds of the instant invention as dopaminergic agents is explained in Mol. Pharmacol., 1976 (12) 800 herein incorporated by reference.

T1 sequence (P20288 whole entry): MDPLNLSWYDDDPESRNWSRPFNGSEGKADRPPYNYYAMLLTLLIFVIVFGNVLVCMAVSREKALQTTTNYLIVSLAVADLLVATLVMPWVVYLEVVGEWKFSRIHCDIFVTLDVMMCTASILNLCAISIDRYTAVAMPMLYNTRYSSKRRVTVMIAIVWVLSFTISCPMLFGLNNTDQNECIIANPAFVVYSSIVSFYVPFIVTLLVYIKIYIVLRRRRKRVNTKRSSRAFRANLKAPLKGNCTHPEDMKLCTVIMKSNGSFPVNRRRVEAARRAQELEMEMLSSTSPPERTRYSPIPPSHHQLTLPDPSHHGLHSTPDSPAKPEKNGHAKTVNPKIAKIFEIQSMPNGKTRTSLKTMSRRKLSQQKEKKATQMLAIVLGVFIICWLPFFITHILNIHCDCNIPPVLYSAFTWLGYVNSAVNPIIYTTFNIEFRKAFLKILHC

Row | Compound | inhibition at 1 µM [%]
1 | CC(C)CCN1CCC=C(c2csc(N)n2)C1 [4-[1,2,5,6-Tetrahydro-1-(3-methylbutyl)-3-pyridinyl]-2-thiazolamine] | 65
2 | CCOCCN1CCC=C(c2csc(N)n2)C1 [4-[1-(2-Ethoxyethyl)-1,2,5,6-tetrahydro-3-pyridinyl]-2-thiazolamine] | 35
3 | CCCN1CCC=C(c2csc(N)n2)C1 [III (double bond) R=R'=H; R"=(CH2)2 CH3, 4-(1,2,5,6-Tetrahydro-1-propyl-3-pyridinyl)-2-thiazolamine] | 66
4 | CCCCN1CCC=C(c2csc(N)n2)C1 [III (double bond) R=R'=H; R"=(CH2)3 CH3, 4-(1,2,5,6-Tetrahydro-1-butyl-3-pyridinyl)-2-thiazolamine] | 57
5 | CCCCCN1CCC=C(c2csc(N)n2)C1 [III (double bond) R=R'=H; R"=(CH2)4 CH3, 4-(1,2,5,6-Tetrahydro-1-pentyl-3-pyridinyl)-2-thiazolamine] | 26
6 | CCCCCCN1CCC=C(c2csc(N)n2)C1 [III (double bond) R=R'=H; R"=(CH2)5 CH3, 4-(1,2,5,6-Tetrahydro-1-hexyl-3-pyridinyl)-2-thiazolamine] | 88
7 | CCN1CCC=C(c2csc(N)n2)C1 [III (double bond) R=R'=H; R"=CH2 CH3, 4-(1,2,5,6-Tetrahydro-1-ethyl-3-pyridinyl)-2-thiazolamine] | 49
8 | C=CCN1CCC=C(c2csc(N)n2)C1 [III (double bond) R=R'=H; R"=CH2 CH=CH2, 4-(1,2,5,6-Tetrahydro-1-allyl-3-pyridinyl)-2-thiazolamine] | 40
9 | CN1CCC=C(c2csc(N)n2)C1 [III (double bond) R=R'=H; R"=CH3, 4-(1,2,5,6-Tetrahydro-1-methyl-3-pyridinyl)-2-thiazolamine] | 50
10 | CCCCCN1CCC=C(c2csc(NC(C)=O)n2)C1 [N-[4-(1,2,5,6-Tetrahydro-1-pentyl-3-pyridinyl)-2-thiazolyl]acetamide] | 0
11 | CCCN1CCC=C(c2csc(NC(C)=O)n2)C1 [N-[4-(1,2,5,6-Tetrahydro-1-propyl-3-pyridinyl)-2-thiazolyl]-acetamide] | 0
12 | CCCN1CCCC(c2csc(NC(C)=O)n2)C1 (stereo not drawn) [N-[4-(1-propyl-3-piperidyl)-2-thiazolyl]acetamide] | 9

Same assay, conditions: read-out: % Inhibition (Haloperidol Receptor Binding)

Row | Compound | inhibition at 1 µM [%]
13 | Nc1nc(C2=CCCN(CCc3ccccc3)C2)cs1 [III (double bond) R=R'=H; R"=(CH2)2 Ph, 4-[1,2,5,6-Tetrahydro-1-(2-phenylethyl)-3-pyridinyl]-2-thiazolamine] | 16
14 | CCCN1CCCC(c2csc(N)n2)C1 (stereo not drawn) [III (single bond) R=R'=H; R"=(CH2)2 CH3, 4-(1-Propyl-3-piperidyl)-2-thiazolamine] | 15

What follows are molecules tested on Locomotor Activity in Mouse (assay: Inhibition of Locomotor Activity in Mouse (Mouse Activity and Screen Test Procedure)). Details: read-out: ED50, Inhibition of Locomotor Activity in Mouse.
Type: in vivo
Excerpt: The effects of representative compounds of the present invention as antipsychotic agents was established by the Mouse Activity and Screen Test Procedure described in Pharmacol. Biochem. Behav. 1978 (8) 97, herein incorporated by reference.
Inhibition of Locomotor Activity in Mouse

Row | Compound | ED50 [mg/kg]
15 | CC(C)CCN1CCC=C(c2csc(N)n2)C1 [4-[1,2,5,6-Tetrahydro-1-(3-methylbutyl)-3-pyridinyl]-2-thiazolamine] | 8.7
16 | CCOCCN1CCC=C(c2csc(N)n2)C1 [4-[1-(2-Ethoxyethyl)-1,2,5,6-tetrahydro-3-pyridinyl]-2-thiazolamine] | 30
17 | CCCN1CCC=C(c2csc(N)n2)C1 [III (double bond) R=R'=H; R"=(CH2)2 CH3, 4-(1,2,5,6-Tetrahydro-1-propyl-3-pyridinyl)-2-thiazolamine] | 2.9
18 | Nc1nc(C2=CCCN(CCc3ccccc3)C2)cs1 [III (double bond) R=R'=H; R"=(CH2)2 Ph, 4-[1,2,5,6-Tetrahydro-1-(2-phenylethyl)-3-pyridinyl]-2-thiazolamine] | 18.1
19 | CCCCN1CCC=C(c2csc(N)n2)C1 [III (double bond) R=R'=H; R"=(CH2)3 CH3, 4-(1,2,5,6-Tetrahydro-1-butyl-3-pyridinyl)-2-thiazolamine] | 7.3
20 | CCCCCN1CCC=C(c2csc(N)n2)C1 [III (double bond) R=R'=H; R"=(CH2)4 CH3, 4-(1,2,5,6-Tetrahydro-1-pentyl-3-pyridinyl)-2-thiazolamine] | < 10
21 | CCCCCCN1CCC=C(c2csc(N)n2)C1 [III (double bond) R=R'=H; R"=(CH2)5 CH3, 4-(1,2,5,6-Tetrahydro-1-hexyl-3-pyridinyl)-2-thiazolamine] | > 30
22 | CCCCCCCN1CCC=C(c2csc(N)n2)C1 [III (double bond) R=R'=H; R"=(CH2)6 CH3, 4-(1,2,5,6-Tetrahydro-1-heptyl-3-pyridinyl)-2-thiazolamine] | 10.4
23 | CCN1CCC=C(c2csc(N)n2)C1 [III (double bond) R=R'=H; R"=CH2 CH3, 4-(1,2,5,6-Tetrahydro-1-ethyl-3-pyridinyl)-2-thiazolamine] | > 30
24 | C=CCN1CCC=C(c2csc(N)n2)C1 [III (double bond) R=R'=H; R"=CH2 CH=CH2, 4-(1,2,5,6-Tetrahydro-1-allyl-3-pyridinyl)-2-thiazolamine] | 3
25 | CN1CCC=C(c2csc(N)n2)C1 [III (double bond) R=R'=H; R"=CH3, 4-(1,2,5,6-Tetrahydro-1-methyl-3-pyridinyl)-2-thiazolamine] | 30
26 | CCCN1CCCC(c2csc(N)n2)C1 (stereo not drawn) [III (single bond) R=R'=H; R"=(CH2)2 CH3, 4-(1-Propyl-3-piperidyl)-2-thiazolamine] | 10
27 | CCCN1CCC=C(c2csc(NC)n2)C1 [N-Methyl-4-(1,2,5,6-tetrahydro-1-propyl-3-pyridinyl)-2-thiazolamine] | 10
28 | CCCCCN1CCC=C(c2csc(NC(C)=O)n2)C1 [N-[4-(1,2,5,6-Tetrahydro-1-pentyl-3-pyridinyl)-2-thiazolyl]acetamide] | 10
29 | CCCN1CCC=C(c2csc(NC(C)=O)n2)C1 [N-[4-(1,2,5,6-Tetrahydro-1-propyl-3-pyridinyl)-2-thiazolyl]-acetamide] | 30
30 | CCCN1CCCC(c2csc(NC(C)=O)n2)C1 (stereo not drawn) [N-[4-(1-propyl-3-piperidyl)-2-thiazolyl]acetamide] | 30
31 | CCCCCN1CCC=C(c2csc(NC)n2)C1 [N-methyl-4-(1,2,5,6-tetrahydro-1-pentyl-3-pyridinyl)-2-thiazolamine] | < 10
32 | CCCCCN1CCC=C(c2csc(N(C)C(C)=O)n2)C1 [N-methyl-N-[4-(1,2,5,6-tetrahydro-1-pentyl-3-pyridinyl)-2-thiazolyl[-acetamide] | 6.4
33 | CCCN1CCC=C(c2csc(N(C)C(C)=O)n2)C1 [N-methyl-N-[4-(1,2,5,6-tetrahydro-1-propyl-3-pyridinyl)-2-thiazolyl]-acetamide] | 39

What follows are molecules tested on Spontaneous Hypertensive Rat (assay: Antihypertensive action, Spontaneous Hypertensive Rat). Details: 30 mg/kg, PO; duration 1 hour.
Type: in vivo
Experimental: The methodology for testing the antihypertensive action of the compounds of the invention is described in Am. J. Med. Sci., 1970 (259)257, herein incorporated by reference. These experiments are considered standard tests in mammals and are indicative of utility for treatment of similar diseases in humans.
Spontaneous Hypertensive Rat (30 mg/kg, PO)

Row | Compound | Decrease in Blood Pressure [%]
34 | CCCN1CCC=C(c2csc(N)n2)C1 [drawing 5] | 20

Same assay, conditions: 30 mg/kg, PO; duration up to 6 hours

Row | Compound | Decrease in Blood Pressure
35 | CCCN1CCC=C(c2csc(N)n2)C1 [drawing 5] | 10-15%

Same assay, conditions: 30 mg/kg, PO; duration up to 10 hours

Row | Compound | Decrease in Blood Pressure
36 | CC(C)CCN1CCC=C(c2csc(N)n2)C1 [drawing 6] | 12-20%

Same assay, conditions: 30 mg/kg, PO; of the 10-15% decrease

Row | Compound | Duration (of decrease in blood pressure)
37 | CCCN1CCC=C(c2csc(N)n2)C1 [drawing 5] | up to 6 hours

Same assay, conditions: 30 mg/kg, PO; of the 12-20% decrease

Row | Compound | Duration (of decrease in blood pressure)
38 | CC(C)CCN1CCC=C(c2csc(N)n2)C1 [drawing 6] | up to 10 hours

Same assay, conditions: 30 mg/kg, PO; of the 20% decrease

Row | Compound | Duration (of decrease in blood pressure) [h]
39 | CCCN1CCC=C(c2csc(N)n2)C1 [drawing 5] | 1
